Consider 3 compounds from patent publication US10421740B2, “Pesticidally active heterocyclic derivatives with sulphur containing substituents” (SYNGENTA PARTICIPATIONS AG, priority 2016, dated 2019).

Each structure is given as a SMILES string.

The test system of series [1] is Bemisia tabaci (Cotton White Fly). Description: Activity against Bemisia tabaci (cotton white fly): feeding/contact activity. The series is classed as in vivo. Particulars: foliar, 144 h, application rate 200 ppm, cotton leaf discs, adult white flies, 6 days after incubation. The procedure:
Example B1: Activity Against Bemisia tabaci (Cotton White Fly): Feeding/Contact Activity
Cotton leaf discs were placed on agar in 24-well microtiter plates and sprayed with aqueous test solutions prepared from 10'000 ppm DMSO stock solutions. After drying the leaf discs were infested with adult white flies. The samples were checked for mortality 6 days after incubation.

Series [2] has as its system Diabrotica balteata (Corn Root Worm). Nature of the series: Activity against Diabrotica balteata (corn root worm). Particulars: 96 h, application rate 200 ppm, maize sprouts, L2 larvae, 4 days after infestation, read-out: effect in at least one of the two categories (mortality or growth inhibition). The series is classed as in vivo. As for the experimental part:
Example B2: Activity Against Diabrotica balteata (Corn Root Worm)
Maize sprouts placed onto an agar layer in 24-well microtiter plates were treated with aqueous test solutions prepared from 10'000 ppm DMSO stock solutions by spraying. After drying, the plates were infested with L2 larvae (6 to 10 per well). The samples were assessed for mortality and growth inhibition in comparison to untreated samples 4 days after infestation.

Series [3] concerns Myzus persicae (Green Peach Aphid). Nature of the series: Activity against Myzus persicae (green peach aphid): feeding/contact activity. Type of series: in vivo. Particulars: foliar, 144 h, application rate 200 ppm, sunflower leaf discs, aphid population of mixed ages, 6 days after infestation. As for the experimental part: Example B3: Activity Against Myzus persicae (Green Peach Aphid): Feeding/Contact Activity
Sunflower leaf discs were placed onto agar in a 24-well microtiter plate and sprayed with aqueous test solutions prepared from 10'000 ppm DMSO stock solutions. After drying, the leaf discs were infested with an aphid population of mixed ages. The samples were assessed for mortality 6 days after infestation.

The test system is the same in series [4]. Description: Activity against Myzus persicae (green peach aphid): systemic activity. The series is classed as in vivo. Particulars: 144 h, test rate 24 ppm, roots of pea seedlings in test solution, 6 days. As for the experimental part: Example B4: Activity Against Myzus persicae (Green Peach Aphid): Systemic Activity
Roots of pea seedlings infested with an aphid population of mixed ages were placed directly into aqueous test solutions prepared from 10'000 DMSO stock solutions. The samples were assessed for mortality 6 days after placing seedlings into test solutions.

The test system of series [5] is Plutella xylostella (Diamond Back Moth). Nature of the series: Activity against Plutella xylostella (diamond back moth). Type of series: in vivo. Particulars: 120 h, application rate 200 ppm, artificial diet, L2 larvae, 5 days after infestation, read-out: effect in at least one of the two categories (mortality or growth inhibition). As for the experimental part: Example B5: Activity Against Plutella xylostella (Diamond Back Moth)
24-well microtiter plates with artificial diet were treated with aqueous test solutions prepared from 10'000 ppm DMSO stock solutions by pipetting. After drying, the plates were infested with L2 larvae (10 to 15 per well). The samples were assessed for mortality and growth inhibition in comparison to untreated samples 5 days after infestation.

The subject of series [6] is Spodoptera littoralis (Egyptian Cotton Leaf Worm). Description: Activity against Spodoptera littoralis (Egyptian cotton leaf worm), uptake via lettuce roots. The series is classed as in vivo. Particulars: 144 h, test rate 12.5 ppm, lettuce grown on treated agar, eggs, 6 days after infestation, read-out: effect in at least one of the three categories (mortality, anti-feeding, or growth inhibition). The source says: Example B6: Activity Against Spodoptera littoralis (Egyptian Cotton Leaf Worm)
Test compounds were applied by pipette from 10'000 ppm DMSO stock solutions into 24-well plates and mixed with agar. Lettuce seeds were placed onto the agar and the multi well plate was closed by another plate which contained also agar. After 7 days the compound was absorbed by the roots and the lettuce grew into the lid plate. The lettuce leaves were then cut off into the lid plate. Spodoptera eggs were pipetted through a plastic stencil onto a humid gel blotting paper and the lid plate was closed with it. The samples were assessed for mortality, anti-feedant effect and growth inhibition in comparison to untreated samples 6 days after infestation.

Series [7] has the same test system. Nature of the series: Activity against Spodoptera littoralis (Egyptian cotton leaf worm), cotton leaf disc spray. Particulars: foliar, 72 h, application rate 200 ppm, cotton leaf discs, L1 larvae, 3 days after infestation. The series is classed as in vivo. The procedure: Example B8: Activity Against Spodoptera littoralis (Egyptian Cotton Leaf Worm)
Cotton leaf discs were placed onto agar in 24-well microtiter plates and sprayed with aqueous test solutions prepared from 10'000 ppm DMSO stock solutions. After drying the leaf discs were infested with five L1 larvae. The samples were assessed for mortality, anti-feeding effect, and growth inhibition in comparison to untreated samples 3 days after infestation. Control of Spodoptera littoralis by a test sample is given when at least one of the categories mortality, anti-feedant effect, and growth inhibition is higher than the untreated sample.

Series [8] has as its system Anopheles stephensi (Indian Malaria Mosquito). Nature of the series: Activity against Anopheles stephensi (Indian malaria mosquito). Particulars: 200 ppm in ethanol, dry deposit; adult females; after 48 h and/or 24 h. The series is classed as in vivo. As for the experimental part: Example B10: Activity Against Anopheles stephensi (Indian Malaria Mosquito)
Test solutions, at an application rate of 200 ppm in ethanol, were applied to 12 well tissue culture plates. Once the deposits were dry, five, two to five day old adult female Anopheles stephensi were added to each well, and sustained with a 10% sucrose solution in a cotton wool plug. Assessment of knockdown was made one hour after introduction, and mortality was assessed at 24 and 48 hours after introduction.

Series [9] concerns Euschistus heros (Neotropical Brown Stink Bug). Description: Activity against Euschistus heros (neotropical brown stink bug). Particulars: 120 h, application rate 200 ppm, soybean leaves, N2 nymphs, 5 days after infestation, read-out: effect in at least one of the two categories (mortality or growth inhibition). Type of series: in vivo. The procedure: Example B9: Activity Against Euschistus heros (Neotropical Brown Stink Bug)
Soybean leaves on agar in 24-well microtiter plates were sprayed with aqueous test solutions prepared from 10'000 ppm DMSO stock solutions. After drying the leaves were infested with N2 nymphs. The samples were assessed for mortality and growth inhibition in comparison to untreated samples 5 days after infestation.

Usually mortality stands for the percentage killed. Low values mean more survivors, high ones fewer survivors. As to `CCS(=O)(=O)c1cc2c(cc1-c1nnc(-c3cc(C(F)(F)F)ccn3)n1C)nc(C(F)(F)F)n2C` [Compound A2, 6-ethylsulfonyl-1-methyl-5-[4-methyl-5-[4-(trifluoromethyl)-2-pyridyl]-1,2,4-triazol-3-yl]-2-(trifluoromethyl)benzimidazole], the mortality at 200 ppm in series [1] and in series [3] was not below 80% throughout. Further, in [2], the percent effect (mortality or growth inhibition) at 200 ppm was not below 80%. Moreover, in [4], the mortality at 24 ppm is not below 80%. Also, the percent control (mortality or growth inhibition) at 200 ppm in series [5] is not below 80%. Further, the percent with effect (mortality, anti-feeding or growth inhibition) at 12.5 ppm in series [6] was not below 80%. The compound also displayed a percent control (mortality, anti-feedant effect or growth inhibition) at 200 ppm in series [7] not below 80%. Moreover, in [8], the “control of Anopheles stephensi” value was “at least 80%”.
As for `CCS(=O)(=O)c1cc2sc(C(F)(F)F)nc2cc1-c1nnc(-c2cc(C(F)(F)F)ccn2)n1C` [Compound A8, 6-ethylsulfonyl-5-[4-methyl-5-[4-(trifluoromethyl)-2-pyridyl]-1,2,4-triazol-3-yl]-2-(trifluoromethyl)-1,3-benzothiazole], the mortality at 200 ppm in [1] and in series [3] was not below 80% in each case. Besides, in [2], the percent effect (mortality or growth inhibition) at 200 ppm is not below 80%. For the same compound, in series [5], the percent control (mortality or growth inhibition) at 200 ppm was not below 80%. For the same compound, in series [6], the percent with effect (mortality, anti-feeding or growth inhibition) at 12.5 ppm is not below 80%. In series [7], this compound returned a percent control (mortality, anti-feedant effect or growth inhibition) at 200 ppm not below 80%. The effect (mortality or growth inhibition) at 200 ppm in series [9] is not below 80%.
Broadly, the melting point is the temperature, or range, at which the solid turns liquid. Take `CCS(=O)(=O)c1cc2nnn(COC)c2nc1-c1nnc(-c2cc(C(F)(F)F)ccn2)n1C` [Compound A16, 6-ethylsulfonyl-3-(methoxymethyl)-5-[4-methyl-5-[4-(trifluoromethyl)-2-pyridyl]-1,2,4-triazol-3-yl]triazolo[4,5-b]pyridine]: the melting point is 198 to 200 °C.
